Measured values reported in patent publication US20110237528A1, “COMPOSITIONS AND METHODS COMPRISING IMIDAZOLE AND TRIAZOLE DERIVATIVES” (INSTITUTE FOR ONEWORLD HEALTH, priority 2008, published 2011).

Columns and labels:
[1] = tested on: cholera toxin (CTX)-induced net fluid secretion in small intestine loops; design: species or system mice (CD1 strain); details: mouse, in vivo
[2] = biological target: T1, CFTR in the CHO-CFTR cell line (Homo sapiens, UniProt P13569); assay: CHO-CFTR assay (FLIPR assay, same conditions as T84 assay); type: cell-based; details: average of at least 2 runs unless marked n = 1
T1 construct: expressed in transfected cells; host or cells: CHO (CHO-CFTR cell line)
T1 sequence (P13569 whole entry): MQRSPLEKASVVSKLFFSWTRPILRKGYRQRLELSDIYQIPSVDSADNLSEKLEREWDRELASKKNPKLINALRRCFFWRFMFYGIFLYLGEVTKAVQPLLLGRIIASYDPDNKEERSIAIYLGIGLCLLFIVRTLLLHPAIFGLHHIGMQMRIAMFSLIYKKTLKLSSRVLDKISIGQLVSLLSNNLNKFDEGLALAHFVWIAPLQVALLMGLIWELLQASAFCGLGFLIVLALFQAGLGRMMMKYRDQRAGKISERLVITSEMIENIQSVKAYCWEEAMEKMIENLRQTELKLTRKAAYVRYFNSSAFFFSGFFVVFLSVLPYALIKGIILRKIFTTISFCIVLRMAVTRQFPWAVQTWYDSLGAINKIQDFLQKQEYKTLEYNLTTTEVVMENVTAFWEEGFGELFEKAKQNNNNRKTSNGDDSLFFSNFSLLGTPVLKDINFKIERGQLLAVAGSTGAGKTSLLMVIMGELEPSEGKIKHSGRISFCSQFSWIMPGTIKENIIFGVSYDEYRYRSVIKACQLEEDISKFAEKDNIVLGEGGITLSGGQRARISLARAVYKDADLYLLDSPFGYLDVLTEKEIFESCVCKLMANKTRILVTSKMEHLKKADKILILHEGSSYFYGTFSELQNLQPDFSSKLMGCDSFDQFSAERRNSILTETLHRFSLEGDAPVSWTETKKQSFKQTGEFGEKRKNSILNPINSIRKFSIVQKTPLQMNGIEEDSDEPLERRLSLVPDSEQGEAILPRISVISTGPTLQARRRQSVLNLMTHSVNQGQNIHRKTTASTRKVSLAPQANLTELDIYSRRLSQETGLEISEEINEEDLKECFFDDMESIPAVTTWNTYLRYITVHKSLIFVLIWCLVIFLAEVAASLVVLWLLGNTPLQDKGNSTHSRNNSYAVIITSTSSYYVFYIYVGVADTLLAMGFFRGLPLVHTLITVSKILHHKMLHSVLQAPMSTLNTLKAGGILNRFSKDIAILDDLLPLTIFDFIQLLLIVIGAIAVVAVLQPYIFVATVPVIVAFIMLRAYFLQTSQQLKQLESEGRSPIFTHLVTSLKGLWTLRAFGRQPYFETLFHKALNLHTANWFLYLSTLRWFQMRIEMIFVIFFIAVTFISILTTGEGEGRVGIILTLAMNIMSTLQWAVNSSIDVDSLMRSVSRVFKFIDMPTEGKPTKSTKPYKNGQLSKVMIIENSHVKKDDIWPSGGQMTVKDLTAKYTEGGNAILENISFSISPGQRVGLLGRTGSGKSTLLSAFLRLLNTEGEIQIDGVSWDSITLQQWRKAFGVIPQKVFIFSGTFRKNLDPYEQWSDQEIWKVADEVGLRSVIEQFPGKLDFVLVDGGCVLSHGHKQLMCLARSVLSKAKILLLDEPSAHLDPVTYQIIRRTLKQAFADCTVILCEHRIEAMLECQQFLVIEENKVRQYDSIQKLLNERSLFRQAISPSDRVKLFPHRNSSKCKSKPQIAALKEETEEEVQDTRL

Structure (SMILES)	% inhibition @ 100 μg dose (closed loop % inhibition) [1] [%]	IC50 [2] [µM]
O=C(NC(c1ccccc1)c1ccccc1)c1ncn(-c2cc(Cl)c(O)c(Cl)c2)n1 [Compound 2, N-benzhydryl-1-(3,5-dichloro-4-hydroxyphenyl)-1H-1,2,4-triazole-3-carboxamide]	42.9	–
O=C(NCCC(c1ccccc1)c1ccccc1)c1ncn(-c2cc(Cl)c(O)c(Cl)c2)n1 [Compound 31, 1-(3,5-dichloro-4-hydroxyphenyl)-N-(3,3-diphenylpropyl)-1H-1,2,4-triazole-3-carboxamide]	45.1	–
O=C(NCc1ccc(Cl)c(Cl)c1)c1ncn(-c2cc(Cl)c(O)c(Cl)c2)n1 [Compound 37, 1-(3,5-dichloro-4-hydroxyphenyl)-N-(3,4-dichlorobenzyl)-1H-1,2,4-triazole-3-carboxamide]	76.9	–
O=C(NCc1ccc(Oc2ccccc2)cc1)c1ncn(-c2cc(Cl)c(O)c(Cl)c2)n1 [Compound 49, 1-(3,5-dichloro-4-hydroxyphenyl)-N-(4-phenoxybenzyl)-1H-1,2,4-triazole-3-carboxamide]	42.3	–
Oc1c(Cl)cc(-n2cnc(C(O)(c3cc(F)cc(F)c3)c3cc(F)cc(F)c3)n2)cc1Cl [Compound 52, 4-(3-(bis(3,5-difluorophenyl)(hydroxy)methyl)-1H-1,2,4-triazol-1-yl)-2,6-dichlorophenol]	55.3	–
O=C(NCc1ccc(Oc2ccc(F)c(C(F)(F)F)c2)cc1)c1ncn(-c2cc(Cl)c(O)c(Cl)c2)n1 [Compound 67, 1-(3,5-dichloro-4-hydroxyphenyl)-N-(4-(4-fluoro-3-(trifluoromethyl)phenoxy)benzyl)-1H-1,2,4-triazole-3-carboxamide]	88.2	–
Cc1noc(C)c1CCNC(=O)c1ncn(-c2cc(Cl)c(O)c(Cl)c2)n1 [Compound 74, 1-(3,5-dichloro-4-hydroxyphenyl)-N-(2-(3,5-dimethylisoxazol-4-yl)ethyl)-1H-1,2,4-triazole-3-carboxamide]	–	≥ 50
CC(C)(C)CCN(Cc1cccc(OC(F)(F)F)c1)C(=O)c1ncn(-c2cc(Cl)c(O)c(Cl)c2)n1 [Compound 77, 1-(3,5-dichloro-4-hydroxyphenyl)-N-(3,3-dimethylbutyl)-N-(3-(trifluoromethoxy)benzyl)-1H-1,2,4-triazole-3-carboxamide]	–	≥ 50
CC(C)(C)CCN(Cc1cccc(C(F)(F)F)c1)C(=O)c1ncn(-c2cc(Cl)c(O)c(Cl)c2)n1 [Compound 79, 1-(3,5-dichloro-4-hydroxyphenyl)-N-(3,3-dimethylbutyl)-N-(3-(trifluoromethyl)benzyl)-1H-1,2,4-triazole-3-carboxamide]	–	≥ 50
O=C(c1ncn(-c2cc(Cl)c(O)c(Cl)c2)n1)N(Cc1ccccc1)Cc1cccc(OC(F)(F)F)c1 [Compound 84, N-benzyl-1-(3,5-dichloro-4-hydroxyphenyl)-N-(3-(trifluoromethoxy)benzyl)-1H-1,2,4-triazole-3-carboxamide]	–	≥ 50
O=C(c1ncn(-c2cc(Cl)c(O)c(Cl)c2)n1)N(Cc1ccccc1)Cc1cccc(C(F)(F)F)c1 [Compound 85, N-benzyl-1-(3,5-dichloro-4-hydroxyphenyl)-N-(3-(trifluoromethyl)benzyl)-1H-1,2,4-triazole-3-carboxamide]	–	≥ 50
C=CCN(Cc1ccc(C(C)C)cc1)C(=O)c1ncn(-c2cc(Cl)c(O)c(Cl)c2)n1 [Compound 101, N-allyl-1-(3,5-dichloro-4-hydroxyphenyl)-N-(4-isopropylbenzyl)-1H-1,2,4-triazole-3-carboxamide]	–	≥ 50
COCCOCCOCCOCCN(Cc1ccc(Cl)c(Cl)c1)C(=O)c1ncn(-c2cc(Cl)c(O)c(Cl)c2)n1 [Compound 111, 1-(3,5-dichloro-4-hydroxyphenyl)-N-(3,4-dichlorobenzyl)-N-(2,5,8,11-tetraoxatridecan-13-yl)-1H-1,2,4-triazole-3-carboxamide]	–	≥ 50
COCCOCCOCCN(Cc1cccc(OC(F)(F)F)c1)C(=O)c1ncn(-c2cc(Cl)c(O)c(Cl)c2)n1 [Compound 113, 1-(3,5-dichloro-4-hydroxyphenyl)-N-(2-(2-(2-methoxyethoxy)ethoxy)ethyl)-N-(3-(trifluoromethoxy)benzyl)-1H-1,2,4-triazole-3-carboxamide]	–	≥ 50
COCCOCCOCCOCCN(Cc1cccc(OC(F)(F)F)c1)C(=O)c1ncn(-c2cc(Cl)c(O)c(Cl)c2)n1 [Compound 115, 1-(3,5-dichloro-4-hydroxyphenyl)-N-(2,5,8,11-tetraoxatridecan-13-yl)-N-(3-(trifluoromethoxy)benzyl)-1H-1,2,4-triazole-3-carboxamide]	–	≥ 50
CC(C)(C)c1ccc(CN(CCOCCOCCOCCOCCOCCOCc2ccccc2)C(=O)c2ncn(-c3cc(Cl)c(O)c(Cl)c3)n2)cc1 [Compound 116, N-(4-tert-butylbenzyl)-1-(3,5-dichloro-4-hydroxyphenyl)-N-(1-phenyl-2,5,8,11,14,17-hexaoxanonadecan-19-yl)-1H-1,2,4-triazole-3-carboxamide]	–	≥ 50
COCCOCCOCCOCCOCCOCCOCCOCCN(Cc1ccc(C(C)(C)C)cc1)C(=O)c1ncn(-c2cc(Cl)c(O)c(Cl)c2)n1 [Compound 117, N-(4-tert-butylbenzyl)-1-(3,5-dichloro-4-hydroxyphenyl)-N-(2,5,8,11,14,17,20,23-octaoxapentacosan-25-yl)-1H-1,2,4-triazole-3-carboxamide]	–	≥ 50
COCCOCCOCCOCCOCCN(Cc1ccc(C(C)(C)C)cc1)C(=O)c1ncn(-c2cc(Cl)c(O)c(Cl)c2)n1 [Compound 118, N-(4-tert-butylbenzyl)-1-(3,5-dichloro-4-hydroxyphenyl)-N-(2,5,8,11,14-pentaoxahexadecan-16-yl)-1H-1,2,4-triazole-3-carboxamide]	–	≥ 50
COCCOCCOCCOCCN(Cc1ccc(C(C)(C)C)cc1)C(=O)c1ncn(-c2cc(Cl)c(O)c(Cl)c2)n1 [Compound 120, N-(4-tert-butylbenzyl)-1-(3,5-dichloro-4-hydroxyphenyl)-N-(2,5,8,11-tetraoxatridecan-13-yl)-1H-1,2,4-triazole-3-carboxamide]	–	≥ 50
COCCOCCOCCOCCOCCOCCOCCOCCON(Cc1ccc(Oc2ccccc2)cc1)C(=O)c1ncn(-c2cc(Cl)c(O)c(Cl)c2)n1 [Compound 121, N-(2,5,8,11,14,17,20,23-octaoxapentacosan-25-yloxy)-1-(3,5-dichloro-4-hydroxyphenyl)-N-(4-phenoxybenzyl)-1H-1,2,4-triazole-3-carboxamide]	–	≥ 50
COCCOCCOCCOCCON(Cc1ccc(Oc2ccccc2)cc1)C(=O)c1ncn(-c2cc(Cl)c(O)c(Cl)c2)n1 [Compound 122, N-(2,5,8,11-tetraoxatridecan-13-yloxy)-1-(3,5-dichloro-4-hydroxyphenyl)-N-(4-phenoxybenzyl)-1H-1,2,4-triazole-3-carboxamide]	–	≥ 50
COCCOCCOCCON(Cc1ccc(Oc2ccccc2)cc1)C(=O)c1ncn(-c2cc(Cl)c(O)c(Cl)c2)n1 [Compound 123, 1-(3,5-dichloro-4-hydroxyphenyl)-N-(2-(2-(2-methoxyethoxy)ethoxy)ethoxy)-N-(4-phenoxybenzyl)-1H-1,2,4-triazole-3-carboxamide]	–	≥ 50
CON(Cc1ccc(C(C)C)cc1)C(=O)c1ncn(-c2cc(Cl)c(O)c(Cl)c2)n1 [Compound 128, 1-(3,5-dichloro-4-hydroxyphenyl)-N-(4-isopropylbenzyl)-N-methoxy-1H-1,2,4-triazole-3-carboxamide]	–	≥ 50
CC(C)c1ccc(CC(NC(=O)c2ncn(-c3cc(Cl)c(O)c(Cl)c3)n2)C(=O)C(C)(C)C)cc1 (stereo not drawn) [Compound 134, 1-(3,5-dichloro-4-hydroxyphenyl)-N-(1-(4-isopropylphenyl)-4,4-dimethyl-3-oxopentan-2-yl)-1H-1,2,4-triazole-3-carboxamide]	71.7	–
